# Test results reported in article PMC7531004, “Discovery of gramicidin A analogues with altered activities by multidimensional screening of a one-bead-one-compound library” (Nature Communications, 2020).
# Where a SMILES comes first, the peptide text is derived from it. [ ]: non-standard residue; d: D form. The star is where a group is joined. NHCH2CH2OH = OCCN*; For = O=C*
# Key:
# [1] = H+/Na+ transport assay of bead-derived peptides (one-point); type: biochemical; parameters: key: relative activity; mean of two control wells = 1.00; settings: bead-derived peptide solution, EYPC/EYPG LUVs;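 note: relative to parent gramicidin A activity set to 1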
# Outline: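 Values are normalized fluorescence, with Triton X-100 defining 100% and untreated LUVs 0%, and the two control wells averaging 1.00. Vesicles carried 1.0 mM pyranine and included egg yolk phosphatidylglycerol. Peptides were incubated with them 30 min at room temperature.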
# [2] = system: Streptococcus pyogenes SSI-9; assay: Antibacterial activity assay of bead-derived peptides (three concentrations); type: cell-based; parameters: key: +++: inhibition by the 640-fold diluted peptide solution; ++: inhibition by the 160-fold diluted solution; +: inhibition by the 40-fold diluted solution; -: no inhibition; settings: S. pyogenes, bead-derived peptide solution, three concentrations
# Outline: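 Growth inhibition scored visually as precipitated bacteria after 37 °C, 18 h incubation. Streptococcus pyogenes SSI-9 inoculum of 2 × 10^5 CFU in Ca2+/Mg2+-adjusted Mueller Hinton broth plus 5% laked horse blood; peptides tested at three levels: stock, 4-fold and 16-fold DMSO dilutions.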
# [3] = system: P388 mouse leukemia cells; settings: 92 h
# Outline: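 Peptide stocks diluted 250× in growth medium; P388 cells 1 × 10^4 cells/mL final; 37 °C, 5% CO2, 92 h. WST-1 + 1-methoxy PMS, 4 h, A415. Output: % viability.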
Structure (SMILES),H+/Na+ transport activity normalized against the value of 1 (1.00) [1],antibacterial activity [2],cell viability/% [3] [%]
CC(C)C[C@@H](NC(=O)[C@H](C)NC(=O)CNC(=O)[C@@H](NC=O)C(C)C)C(=O)N[C@@H](C)C(=O)N[C@H](CC(C)C)C(=O)N[C@H](C(=O)N[C@@H](C(=O)N[C@@H](Cc1c[nH]c2ccccc12)C(=O)N[C@@H](C(=O)N[C@@H](Cc1c[nH]c2ccccc12)C(=O)N[C@@H](C(=O)N[C@@H](Cc1c[nH]c2ccccc12)C(=O)N[C@H](CC(C)C)C(=O)N[C@@H](Cc1c[nH]c2ccccc12)C(=O)NCCO)C(C)C)[C@H](C)O)C(C)C)C(C)C [compound 12081] (For-VGA[dL]A[dL]V[dV]W[dT]W[dV]W[dL]W-NHCH2CH2OH),1.01,-,100.0
CC(C)C[C@@H](NC(=O)[C@H](C)NC(=O)[C@H](NC(=O)[C@H](C)NC(=O)CNC(=O)[C@@H](NC=O)C(C)C)C(C)C)C(=O)N[C@H](C(=O)N[C@@H](C(=O)N[C@@H](Cc1c[nH]c2ccccc12)C(=O)N[C@@H](C(=O)N[C@@H](Cc1c[nH]c2ccccc12)C(=O)N[C@@H](C(=O)N[C@@H](Cc1c[nH]c2ccccc12)C(=O)N[C@@H](C(=O)N[C@@H](Cc1c[nH]c2ccccc12)C(=O)NCCO)C(C)C)C(C)C)C(C)C)C(C)C)C(C)C [compound 13030] (For-VGA[dV]A[dL]V[dV]W[dV]W[dV]W[dV]W-NHCH2CH2OH),1.42,+,99.9
CC(C)C[C@@H](NC(=O)[C@H](C)NC(=O)CNC(=O)[C@@H](NC=O)C(C)C)C(=O)N[C@@H](C)C(=O)N[C@@H](C(=O)N[C@H](C(=O)N[C@H](CC(C)C)C(=O)N[C@@H](Cc1c[nH]c2ccccc12)C(=O)N[C@@H](C(=O)N[C@@H](Cc1c[nH]c2ccccc12)C(=O)N[C@@H](C(=O)N[C@@H](Cc1c[nH]c2ccccc12)C(=O)N[C@@H](C(=O)N[C@@H](Cc1c[nH]c2ccccc12)C(=O)NCCO)C(C)C)C(C)C)C(C)C)C(C)C)C(C)C [compound 7938] (For-VGA[dL]A[dV]V[dL]W[dV]W[dV]W[dV]W-NHCH2CH2OH),1.10,+,17.4
CC(C)C[C@@H](NC(=O)[C@H](Cc1c[nH]c2ccccc12)NC(=O)[C@H](NC(=O)[C@H](Cc1c[nH]c2ccccc12)NC(=O)[C@@H](CC(C)C)NC(=O)[C@H](Cc1c[nH]c2ccccc12)NC(=O)[C@@H](CC(C)C)NC(=O)[C@@H](NC(=O)[C@H](NC(=O)[C@H](C)NC(=O)[C@H](NC(=O)[C@H](C)NC(=O)CNC(=O)[C@@H](NC=O)C(C)C)[C@H](C)O)C(C)C)C(C)C)C(C)C)C(=O)N[C@@H](Cc1c[nH]c2ccccc12)C(=O)NCCO [compound 4440] (For-VGA[dT]A[dV]V[dL]W[dL]W[dV]W[dL]W-NHCH2CH2OH),1.15,-,85.6
CC(C)C[C@@H](NC(=O)[C@H](Cc1c[nH]c2ccccc12)NC(=O)[C@H](NC(=O)[C@H](Cc1c[nH]c2ccccc12)NC(=O)[C@H](NC(=O)[C@H](Cc1c[nH]c2ccccc12)NC(=O)[C@@H](CC(C)C)NC(=O)[C@@H](NC(=O)[C@H](NC(=O)[C@H](C)NC(=O)[C@H](NC(=O)[C@H](C)NC(=O)CNC(=O)[C@@H](NC=O)C(C)C)C(C)C)C(C)C)C(C)C)C(C)C)C(C)C)C(=O)N[C@@H](Cc1c[nH]c2ccccc12)C(=O)NCCO [compound 448] (For-VGA[dV]A[dV]V[dL]W[dV]W[dV]W[dL]W-NHCH2CH2OH),1.07,+,34.1
CC(C)C[C@@H](NC(=O)[C@H](Cc1c[nH]c2ccccc12)NC(=O)[C@H](NC(=O)[C@H](Cc1c[nH]c2ccccc12)NC(=O)[C@H](NC(=O)[C@H](Cc1c[nH]c2ccccc12)NC(=O)[C@@H](CC(C)C)NC(=O)[C@@H](NC(=O)[C@H](NC(=O)[C@H](C)NC(=O)[C@H](NC(=O)[C@H](C)NC(=O)CNC(=O)[C@@H](NC=O)C(C)C)[C@H](C)O)C(C)C)C(C)C)C(C)C)C(C)C)C(=O)N[C@@H](Cc1c[nH]c2ccccc12)C(=O)NCCO [compound 2532] (For-VGA[dT]A[dV]V[dL]W[dV]W[dV]W[dL]W-NHCH2CH2OH),1.22,-,100.0
CC(C)C[C@@H](NC(=O)[C@H](C)NC(=O)[C@H](NC(=O)[C@H](C)NC(=O)CNC(=O)[C@@H](NC=O)C(C)C)C(C)C)C(=O)N[C@H](C(=O)N[C@@H](C(=O)N[C@@H](Cc1c[nH]c2ccccc12)C(=O)N[C@@H](C(=O)N[C@@H](Cc1c[nH]c2ccccc12)C(=O)N[C@H](CC(C)C)C(=O)N[C@@H](Cc1c[nH]c2ccccc12)C(=O)N[C@H](CC(C)C)C(=O)N[C@@H](Cc1c[nH]c2ccccc12)C(=O)NCCO)C(C)C)C(C)C)C(C)C [compound 7169] (For-VGA[dV]A[dL]V[dV]W[dV]W[dL]W[dL]W-NHCH2CH2OH),1.15,+,90.3
CC(C)C[C@@H](NC(=O)[C@H](C)NC(=O)CNC(=O)[C@@H](NC=O)C(C)C)C(=O)N[C@@H](C)C(=O)N[C@H](CC(C)C)C(=O)N[C@H](C(=O)N[C@H](CC(C)C)C(=O)N[C@@H](Cc1c[nH]c2ccccc12)C(=O)N[C@@H](C(=O)N[C@@H](Cc1c[nH]c2ccccc12)C(=O)N[C@@H](C(=O)N[C@@H](Cc1c[nH]c2ccccc12)C(=O)N[C@@H](C(=O)N[C@@H](Cc1c[nH]c2ccccc12)C(=O)NCCO)C(C)C)C(C)C)[C@H](C)O)C(C)C [compound 4532] (For-VGA[dL]A[dL]V[dL]W[dT]W[dV]W[dV]W-NHCH2CH2OH),1.11,-,100.0
CC(C)C[C@@H](NC(=O)[C@H](Cc1c[nH]c2ccccc12)NC(=O)[C@@H](CC(C)C)NC(=O)[C@H](Cc1c[nH]c2ccccc12)NC(=O)[C@H](NC(=O)[C@H](Cc1c[nH]c2ccccc12)NC(=O)[C@@H](CC(C)C)NC(=O)[C@@H](NC(=O)[C@H](NC(=O)[C@H](C)NC(=O)[C@H](NC(=O)[C@H](C)NC(=O)CNC(=O)[C@@H](NC=O)C(C)C)C(C)C)C(C)C)C(C)C)C(C)C)C(=O)N[C@@H](Cc1c[nH]c2ccccc12)C(=O)NCCO [compound 11146] (For-VGA[dV]A[dV]V[dL]W[dV]W[dL]W[dL]W-NHCH2CH2OH),1.08,+,100.0
CC(C)C[C@@H](NC(=O)[C@H](C)NC(=O)[C@H](NC(=O)[C@H](C)NC(=O)CNC(=O)[C@@H](NC=O)C(C)C)C(C)C)C(=O)N[C@H](C(=O)N[C@@H](C(=O)N[C@@H](Cc1c[nH]c2ccccc12)C(=O)N[C@@H](C(=O)N[C@@H](Cc1c[nH]c2ccccc12)C(=O)N[C@@H](C(=O)N[C@@H](Cc1c[nH]c2ccccc12)C(=O)N[C@@H](C(=O)N[C@@H](Cc1c[nH]c2ccccc12)C(=O)NCCO)C(C)C)C(C)C)C(C)C)[C@H](C)O)C(C)C [compound 12283] (For-VGA[dV]A[dL]V[dT]W[dV]W[dV]W[dV]W-NHCH2CH2OH),1.08,-,100.0
CC(C)C[C@@H](NC(=O)[C@H](C)NC(=O)CNC(=O)[C@@H](NC=O)C(C)C)C(=O)N[C@@H](C)C(=O)N[C@@H](C(=O)N[C@H](C(=O)N[C@@H](C(=O)N[C@@H](Cc1c[nH]c2ccccc12)C(=O)N[C@H](CC(C)C)C(=O)N[C@@H](Cc1c[nH]c2ccccc12)C(=O)N[C@H](CC(C)C)C(=O)N[C@@H](Cc1c[nH]c2ccccc12)C(=O)N[C@H](CC(C)C)C(=O)N[C@@H](Cc1c[nH]c2ccccc12)C(=O)NCCO)C(C)C)C(C)C)C(C)C [compound 6292] (For-VGA[dL]A[dV]V[dV]W[dL]W[dL]W[dL]W-NHCH2CH2OH),1.25,++,5.4
CC(C)C[C@@H](NC(=O)[C@H](C)NC(=O)[C@H](NC(=O)[C@H](C)NC(=O)CNC(=O)[C@@H](NC=O)C(C)C)[C@H](C)O)C(=O)N[C@H](C(=O)N[C@H](CC(C)C)C(=O)N[C@@H](Cc1c[nH]c2ccccc12)C(=O)N[C@@H](C(=O)N[C@@H](Cc1c[nH]c2ccccc12)C(=O)N[C@@H](C(=O)N[C@@H](Cc1c[nH]c2ccccc12)C(=O)N[C@H](CC(C)C)C(=O)N[C@@H](Cc1c[nH]c2ccccc12)C(=O)NCCO)C(C)C)C(C)C)C(C)C [compound 9145] (For-VGA[dT]A[dL]V[dL]W[dV]W[dV]W[dL]W-NHCH2CH2OH),1.03,-,70.9
CC(C)C[C@@H](NC(=O)[C@H](C)NC(=O)CNC(=O)[C@@H](NC=O)C(C)C)C(=O)N[C@@H](C)C(=O)N[C@@H](C(=O)N[C@H](C(=O)N[C@@H](C(=O)N[C@@H](Cc1c[nH]c2ccccc12)C(=O)N[C@@H](C(=O)N[C@@H](Cc1c[nH]c2ccccc12)C(=O)N[C@H](CC(C)C)C(=O)N[C@@H](Cc1c[nH]c2ccccc12)C(=O)N[C@@H](C(=O)N[C@@H](Cc1c[nH]c2ccccc12)C(=O)NCCO)C(C)C)C(C)C)[C@H](C)O)C(C)C)C(C)C [compound 4357] (For-VGA[dL]A[dV]V[dT]W[dV]W[dL]W[dV]W-NHCH2CH2OH),1.01,-,100.0
